Experimental findings from US11051515B2, “3-acyl-benzamides and their use as herbicides” (Bayer Aktiengesellschaft, priority 2017, dated 2021) are described below.

In experiment [1] the test system is HORMU. In words: Pre-emergence action against HORMU. In kind it is in vivo, Hordeum murinum. The note with it: Hordeum murinum, 504 h, Dosage 320 g/ha. In outline: (§1)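 Seeds sown in sandy loam in wood-fiber pots and covered with soil. Greenhouse growth; visual damage scored after 3 weeks versus untreated controls (100% = dead, 0% = like control).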
The subject of experiment [2] is HORMU. The experiment can be described thus: Post-emergence action against HORMU. The experiment is classed as in vivo, Hordeum murinum. The following applies: dosage 80 g/ha. Here is the method: Seeds of monocotyledonous and dicotyledonous weed and crop plants are laid out in sandy loam soil in wood-fiber pots, covered with soil and cultivated in a greenhouse under good growth conditions. 2 to 3 weeks after sowing, the test plants are treated at the one-leaf stage. The compounds of the invention, formulated in the form of wettable powders (WP) or as emulsion concentrates (EC), are then sprayed onto the green parts of the plants in the form of an aqueous suspension or emulsion at a water application rate equating to […], with addition of 0.2% wetting agent. After the test plants have been left to stand in the greenhouse under optimal growth conditions for about 3 weeks, the action of the preparations is assessed visually in comparison to untreated controls (herbicidal action in percent (%): 100% activity=the plants have died, 0% activity=like control plants). […] At the same time, inventive compounds leave Gramineae crops such as barley, wheat, rye, millet/Sorghum, corn or rice virtually undamaged when applied post-emergence, even at high active ingredient dosages. In addition, some substances are also harmless to dicotyledonous crops such as soya, cotton, oilseed rape, sugar beet or potatoes. Some of the compounds according to the invention have high selectivity and are therefore suitable for controlling unwanted vegetation in agricultural crops by the post-emergence method. The data of Tables B18 to B34 below illustrate, in an exemplary manner, the […] herbicidal action of the compounds according to the invention, the herbicidal activity being stated in percent.

Experiment [3] relates to LOLRI. In words: Post-emergence action against LOLRI. The experiment is classed as in vivo, Lolium rigidum. The following applies: Lolium rigidum, 504 h, dosage 80 g/ha, visual assessment about 3 weeks after treatment vs untreated controls, read-out: Post-emergence action against LOLRI (herbicidal action in percent). In outline:
(§2)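 Post-emergence foliar spray on greenhouse plants at the one-leaf stage, using wettable-powder or emulsion-concentrate formulations in water (600 to […], plus 0.2% wetting agent). Damage scored by eye roughly 3 weeks later against untreated plants: 0% = like control, 100% = dead.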

For experiment [4], the system named is AMARE. The experiment can be described thus: Post-emergence action against AMARE. The following applies: Amaranthus retroflexus, 504 h; post-emergence, dosage 80 g/ha, visual assessment about 3 weeks after treatment vs untreated controls; read-out: Post-emergence action against AMARE (herbicidal action in percent). In kind it is in vivo, Amaranthus retroflexus. The essentials:
as §2

Experiment [5] deals with PHBPU. In words: Pre-emergence action against PHBPU. The experiment is classed as in vivo, Pharbitis purpurea. The following applies: Ipomoea purpurea, 504 h; Dosage 320 g/ha, pre-emergence. In outline: as §1
For experiment [6], the system named is LOLRI. In words: Pre-emergence action against LOLRI. The note with it: Lolium rigidum, 504 h, dosage 320 g/ha, scored visually after 3 weeks vs untreated controls, read-out: Pre-emergence action against LOLRI (herbicidal activity). The experiment is classed as in vivo, Lolium rigidum. The essentials: as §1
Experiment [7] has as its system SETVI. The experiment can be described thus: Pre-emergence action against SETVI. The note with it: Setaria viridis, 504 h; pre-emergence, dosage 320 g/ha, scored visually after 3 weeks vs untreated controls; read-out: SETVI (Table B8, pre-emergence herbicidal activity). The experiment is classed as in vivo, Setaria viridis. The essentials: as §1
The test system of experiment [8] is CYPES. In words: Post-emergence action against CYPES. In kind it is in vivo, Cyperus esculentus. The following applies: Cyperus esculentus, 504 h; post-emergence, dosage 80 g/ha, visual assessment about 3 weeks after treatment vs untreated controls; read-out: Post-emergence action against CYPES (herbicidal action in percent). In outline:
as §2

The subject of experiment [9] is MATIN. The experiment can be described thus: Pre-emergence action against MATIN. The experiment is classed as in vivo, Matricaria inodora. The following applies: Tripleurospermum inodorum, 504 h; Dosage 320 g/ha, pre-emergence. The essentials: as §1
Experiment [10] concerns POLCO. In words: Pre-emergence action against POLCO. The experiment is classed as in vivo, Polygonum convolvulus. The note with it: Fallopia convolvulus, 504 h; Dosage 320 g/ha, pre-emergence. The essentials:
as §1

Experiment [11] deals with ABUTH. The experiment can be described thus: Post-emergence action against ABUTH. The following applies: Abutilon theophrasti, 504 h; post-emergence, dosage 80 g/ha, visual assessment about 3 weeks after treatment vs untreated controls; read-out: Post-emergence action against ABUTH (herbicidal action in percent). The experiment is classed as in vivo, Abutilon theophrasti. In outline: as §2

For experiment [12], the system named is DIGSA. In words: Post-emergence action against DIGSA. In kind it is in vivo, Digitaria sanguinalis. The note with it: dosage 80 g/ha, visual assessment about 3 weeks after treatment vs untreated controls. The essentials: as §2
In experiment [13] the test system is DIGSA. The experiment can be described thus: Pre-emergence action against DIGSA. The experiment is classed as in vivo, Digitaria sanguinalis. The note with it: dosage 320 g/ha, scored visually after 3 weeks vs untreated controls. In outline:
as §1

Molecules are shown by their SMILES.

Take `CCn1nnnc1NC(=O)c1ccc(C(F)(F)F)c(C(=O)C2CC2)c1C` [2-18, 3-(cyclopropylcarbonyl)-N-(1-ethyl-1H-tetrazol-5-yl)-2-methyl-4-(trifluoromethyl)benzamide]: the pest or weed control at 320 g/ha worked out at 100% in experiment [1]; 90% in experiment [5]; 100% in experiment [6]; 100% in experiment [7]; 100% in [9]; 90% in experiment [10]. Further, in experiment [2], the “Post-emergence action against HORMU” value is recorded as 100. Further, the pest or weed control at 80 g/ha in experiment [3] came to 100%; in experiment [4], 100%; in experiment [8] it was 90%; in experiment [11], 100%.
Consider `CC(=O)c1c(I)ccc(C(=O)Nc2nnnn2C)c1Cl` [1-192], for which the pest or weed control at 320 g/ha in experiment [1] is 100%; in experiment [5], 100%; in [6], 100%; in [7] it was 100%; in experiment [9] it was 100%; in experiment [10], 80%. The “Post-emergence action against HORMU” value in experiment [2] came to 100. Moreover, the pest or weed control at 80 g/ha is 100% in experiment [3], 100% in experiment [4], 80% in [8] and 100% in experiment [11].
On to `Cn1nnnc1NC(=O)c1ccc(C(F)F)c(C(=O)C2CC2)c1Cl` [1-168], for which the pest or weed control at 320 g/ha in [1] is 100%; in experiment [5], 100%; in [6] it was 100%; in experiment [7], 100%; in experiment [9], 100%; in experiment [10] it was 90%. Moreover, in [2], the “Post-emergence action against HORMU” value is 100. Moreover, the pest or weed control at 80 g/ha in experiment [3], in experiment [4], in [8] and in experiment [11] was 100% each time.
Take `CSc1c(C(=O)Nc2nnnn2C)ccc(C(F)(F)F)c1C(=O)C1CC1` [1-60]: the pest or weed control at 320 g/ha in [1], in experiment [5], in experiment [6], in experiment [7], in experiment [9] and in experiment [10] was 100% in each case. Besides, in experiment [2], the “Post-emergence action against HORMU” value is 100. For the same compound, the pest or weed control at 80 g/ha in [3] came out at 100%; in experiment [4], 100%; in experiment [8], 90%; in experiment [11], 90%.
Regarding `CSc1c(C(=O)Nc2nnnn2C)ccc(C(F)F)c1C(=O)C1CC1` [1-67], the pest or weed control at 320 g/ha in experiment [1] came out at 80%; in [5], 100%; in experiment [6], 100%; in experiment [7], 100%; in experiment [9] it was 100%; in [10] it was 100%. Also, the “Post-emergence action against HORMU” value in experiment [2] is 100. Also, the pest or weed control at 80 g/ha in experiment [3] came out at 100%; in experiment [4], 100%; in experiment [8] it was 90%; in [11], 100%.
With `Cn1nnnc1NC(=O)c1ccc(C(F)(F)F)c(C(=O)C2CC2)c1C1CC1` [1-233], the pest or weed control at 320 g/ha in experiment [1] was found to be 100%; in experiment [5] it was 100%; in [6], 100%; in [7], 100%; in experiment [9], 100%; in experiment [10], 80%. The “Post-emergence action against HORMU” value in [2] was 80. The pest or weed control at 80 g/ha came out at 90% in experiment [3], 90% in experiment [4] and 100% in experiment [11]. Also, the “Post-emergence action against DIGSA (herbicidal action in percent)” value in experiment [12] was 100%. The “Pre-emergence action against DIGSA (herbicidal activity)” value in [13] is given as 100%.
